Measurements taken from the supplement of paper PMC10307832.

Tests used:
Assay in all cases: relative viability (nuclei count vs DMSO), 5 days (fraction); higher = more cells survive
[1] = compound: CC1=CC=C(C=C1)C(=O)CN2C3=C(CCCC3)SC2=N [Pifithrin_alpha] + Cc1nc(NC(=O)N2CCC[C@H]2C(N)=O)sc1-c1ccnc(C(C)(C)C(F)(F)F)c1 [Alpelisib] (partner 2 µM)
How it was run: (§1)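 For relative viability, nuclei counts in treated wells were divided by those in vehicle wells. Lung cancer cell lines had been pin-tool dosed in 1536-well plates the day after seeding and cultured for 5 days, then fixed and stained in one step (final 0.05% Triton X-100, 1% formaldehyde, 1 ug/ml Hoechst) and imaged at 4×. Doses were one drug alone or a fixed anchor-drug dose plus five library-drug doses (not always all listed) in √10 steps, and values are duplicate-plate medians.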

Axitinib + Trametinib = compound: CNC(=O)c1ccccc1Sc1ccc2c(/C=C/c3ccccn3)n[nH]c2c1 [Axitinib] + CC(=O)Nc1cccc(-n2c(=O)n(C3CC3)c(=O)c3c(Nc4ccc(I)cc4F)n(C)c(=O)c(C)c32)c1 [Trametinib] (partner 0.02 µM)
How it was run: as §1

Axitinib + Olaparib = compound: CNC(=O)c1ccccc1Sc1ccc2c(/C=C/c3ccccn3)n[nH]c2c1 [Axitinib] + O=C(c1cc(Cc2n[nH]c(=O)c3ccccc23)ccc1F)N1CCN(C(=O)C2CC2)CC1 [Olaparib] (partner 8 µM)
How it was run: as §1

Bemcentinib + Lapatinib = compound: Nc1nc(Nc2ccc3c(c2)CC[C@@H](N2CCCC2)CC3)nn1-c1cc2c(nn1)-c1ccccc1CCC2 [Bemcentinib] + CS(=O)(=O)CCNCc1ccc(-c2ccc3ncnc(Nc4ccc(OCc5cccc(F)c5)c(Cl)c4)c3c2)o1 [Lapatinib] (partner 2 µM)
How it was run: as §1

Cell Line | relative viability ([1]; first compound 1 µM) | relative viability ([1]; first compound 3.162 µM) | relative viability ([1]; first compound 10 µM) | relative viability ([1]; first compound 31.62 µM) | relative viability ([1]; first compound 100 µM) | relative viability (Axitinib + Trametinib; first compound 0.005 µM) | relative viability (Axitinib + Trametinib; first compound 0.01581 µM) | relative viability (Axitinib + Trametinib; first compound 0.05 µM) | relative viability (Axitinib + Trametinib; first compound 0.1581 µM) | relative viability (Axitinib + Trametinib; first compound 0.5 µM) | relative viability (Axitinib + Olaparib; first compound 0.005 µM) | relative viability (Axitinib + Olaparib; first compound 0.01581 µM) | relative viability (Axitinib + Olaparib; first compound 0.05 µM) | relative viability (Axitinib + Olaparib; first compound 0.1581 µM) | relative viability (Axitinib + Olaparib; first compound 0.5 µM) | relative viability (Bemcentinib + Lapatinib; first compound 0.04 µM) | relative viability (Bemcentinib + Lapatinib; first compound 0.1265 µM) | relative viability (Bemcentinib + Lapatinib; first compound 0.4 µM) | relative viability (Bemcentinib + Lapatinib; first compound 1.265 µM) | relative viability (Bemcentinib + Lapatinib; first compound 4 µM)
LXF-289 | 1.09 | 1.01 | 1.08 | 0.921 | 1.03 | 0.703 | 0.644 | 0.683 | 0.684 | 0.701 | 1.11 | 1.03 | 1.05 | 0.982 | 1 | 0.887 | 0.908 | 0.988 | 0.972 | 0.924
NCI-H23 | 0.586 | 0.572 | 0.634 | 0.466 | 0.592 | 0.45 | 0.373 | 0.433 | 0.405 | 0.368 | 0.284 | 0.331 | 0.334 | 0.285 | 0.312 | 0.966 | 1.28 | 1.32 | 1.19 | 1.1
NCI-H322M | 0.777 | 0.651 | 0.802 | 0.581 | 0.87 | 0.577 | 0.458 | 0.48 | 0.467 | 0.486 | 0.965 | 0.849 | 0.753 | 0.724 | 1.06 | 0.576 | 0.635 | 0.574 | 0.645 | 0.611
NCI-H358 | 0.895 | 0.958 | 0.87 | 0.566 | 0.687 | 0.137 | 0.13 | 0.144 | 0.125 | 0.14 | 0.741 | 0.567 | 0.6 | 0.594 | 0.682 | 0.496 | 0.415 | 0.373 | 0.531 | 0.464
NCI-H460 | 0.529 | 0.57 | 0.384 |  | 0.305 | 0.165 | 0.177 | 0.188 | 0.297 | 0.253 | 0.411 | 0.402 | 0.514 | 0.379 | 0.498 | 0.931 | 1.46 | 1.3 | 1.14 | 1.12
NCI-H520 | 1.02 | 1.24 | 0.698 | 0.472 | 0.842 | 0.704 | 0.542 | 0.733 | 0.541 | 0.686 | 0.342 | 0.345 | 0.361 | 0.251 | 0.368 | 0.855 | 0.943 | 1.08 | 0.768 | 1.05
NCI-H596 | 0.373 | 0.452 | 0.492 | 0.532 | 0.443 | 0.881 | 0.625 | 0.835 | 0.8 | 0.895 | 0.739 | 0.663 | 0.739 | 0.719 | 0.705 | 1.07 | 1.13 | 1.09 | 1.09 | 1.09
NCI-H647 | 1.07 | 1.06 | 0.992 |  | 0.736 | 0.587 | 0.484 | 0.49 | 0.407 | 0.506 | 0.581 | 0.527 | 0.708 | 0.622 | 0.644 | 1.2 | 1.25 | 1.1 | 0.978 | 1.22
NCI-H661 | 0.528 | 0.552 | 0.623 | 0.63 | 0.73 | 0.594 | 0.5 | 0.578 | 0.556 | 0.583 | 0.724 | 0.753 | 0.741 | 0.698 | 0.834 | 0.484 | 0.431 | 0.491 | 0.567 | 0.469
NCI-H727 | 0.55 | 0.533 | 0.512 | 0.415 | 0.492 | 0.375 | 0.369 | 0.402 | 0.377 | 0.414 | 0.59 | 0.756 | 0.759 | 0.665 | 0.652 | 0.713 | 0.875 | 0.877 | 0.864 | 1.01
NCI-H838 | 0.909 | 0.834 | 0.812 | 0.694 | 0.733 | 0.565 | 0.486 | 0.584 | 0.52 | 0.572 | 0.869 | 0.712 | 0.806 | 0.756 | 0.783 | 1.06 | 1.16 | 0.914 | 0.967 | 1.26
NCI-H1355 | 0.732 | 0.587 | 0.559 | 0.489 | 0.591 | 0.409 | 0.423 | 0.397 | 0.417 | 0.493 | 0.756 | 0.769 | 0.729 | 0.723 | 0.77 | 0.908 | 1.1 | 1.04 | 1.13 | 1.07
NCI-H1395 |  | 1.06 | 1.13 | 0.55 | 0.958 | 1 | 0.789 | 0.941 | 0.911 | 1.02 | 0.51 | 0.446 | 0.432 | 0.435 | 0.545 | 0.95 | 1.19 | 0.999 | 1.06 | 0.897
